Data taken from patent publication US8119692B2 (priority 2007, dated 2012).

These compounds were tested against Lethal factor protease (Bacillus anthracis, UniProt P15917) (assay: biochemical). Settings: LF (FRET) Ki^app.
Lethal factor protease, sequence (P15917 34-809 limits assumed): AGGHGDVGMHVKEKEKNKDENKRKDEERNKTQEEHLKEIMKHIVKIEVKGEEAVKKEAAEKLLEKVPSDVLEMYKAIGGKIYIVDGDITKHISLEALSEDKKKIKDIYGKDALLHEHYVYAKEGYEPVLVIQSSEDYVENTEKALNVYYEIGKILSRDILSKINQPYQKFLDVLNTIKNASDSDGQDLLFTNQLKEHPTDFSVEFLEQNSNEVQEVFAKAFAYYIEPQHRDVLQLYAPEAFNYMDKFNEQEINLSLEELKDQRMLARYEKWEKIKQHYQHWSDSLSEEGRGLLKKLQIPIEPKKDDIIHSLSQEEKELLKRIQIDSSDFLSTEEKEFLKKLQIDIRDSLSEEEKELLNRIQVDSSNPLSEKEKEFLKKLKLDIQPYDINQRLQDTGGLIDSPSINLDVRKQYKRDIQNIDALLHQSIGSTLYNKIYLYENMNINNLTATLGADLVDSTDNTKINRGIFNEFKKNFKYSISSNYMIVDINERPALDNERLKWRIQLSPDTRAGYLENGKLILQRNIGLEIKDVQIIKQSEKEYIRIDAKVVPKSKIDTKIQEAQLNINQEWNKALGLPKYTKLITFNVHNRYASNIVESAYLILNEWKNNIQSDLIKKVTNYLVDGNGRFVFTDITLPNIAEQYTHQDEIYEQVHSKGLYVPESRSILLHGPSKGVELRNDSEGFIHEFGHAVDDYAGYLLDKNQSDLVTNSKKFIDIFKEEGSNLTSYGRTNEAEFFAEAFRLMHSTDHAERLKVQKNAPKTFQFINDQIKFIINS

Compared with CO[C@H](C[C@H](CCCCNCc1cccc(-c2ccc(F)cc2)c1)C(=O)NO)c1ccc(F)cc1 [Compound 168230, (S)-6-((4′-fluorobiphenyl-3-yl)methylamino)-2-((R)-2-(4-fluorophenyl)-2-methoxyethyl)-N-hydroxyhexanamide], CO[C@H](C[C@H](CCCCNCCc1ccc(F)cc1)C(=O)NO)c1ccc(F)cc1 [Compound 168221] is 1.6-fold lower in Ki: 0.45 µM for the first, 0.28 µM for the second.

Going from C=CC[C@H](C[C@@H](OC)c1ccc(F)c(C)c1)C(=O)NO [Compound 167672, (2R)-2-((2R)-2-(4-fluoro-3-methylphenyl)-2-methoxyethyl)-N-hydroxypent-4-enamide] to C=CC[C@@H](C[C@@H](OC)c1ccc(F)c(C)c1)C(=O)NO [Compound 167673, (S)-2-((R)-2-(4-Fluoro-3-methylphenyl)-2-methoxyethyl)-N-hydroxypent-4-enamide], the Ki falls from 42 µM to 6.6 µM (6.4-fold). The second binds more tightly here.

First: CO[C@H](C[C@H](CCN(c1ccccc1)c1ccccc1)C(=O)NO)c1ccc(F)cc1 [Compound 167796, (2S)-(2-Diphenylamino-ethyl)-(4R)-(4-fluoro-phenyl)-N-hydroxy-4-methoxy-butyramide]
Second: CO[C@H](C[C@H](CCN(Cc1ccccc1)Cc1ccccc1)C(=O)NO)c1ccc(F)cc1 [Compound 167996, (2S,4R)-2-(2-(dibenzylamino)ethyl)-4-(4-fluorophenyl)-N-hydroxy-4-methoxybutanamide]
The Ki of the first is 16-fold lower: 2.1 µM for the first, 33.4 µM for the second. The first binds more tightly here.

Compared with CO[C@H](C[C@H](CCN(C)Cc1ccc(Br)cc1)C(=O)NO)c1ccc(F)cc1 [Compound 168015], CO[C@H](C[C@H](CCN(C)Cc1cccc(Br)c1)C(=O)NO)c1ccc(F)cc1 [Compound 168001, (2S,4R)-2-(2-((3-bromobenzyl)(methyl)amino)ethyl)-4-(4-fluorophenyl)-N-hydroxy-4-methoxybutanamide] is 1.8-fold lower in Ki: 2.2 µM for the first, 1.2 µM for the second. The second binds more tightly here.

First: CCCCN(C)CC[C@@H](C[C@@H](OC)c1ccc(F)cc1)C(=O)NO [Compound 167828, (2S,4R)-2-(2-(butyl(methyl)amino)ethyl)-4-(4-fluorophenyl)-N-hydroxy-4-methoxybutanamide]
Second: CCN(CC)CC[C@@H](C[C@@H](OC)c1ccc(F)cc1)C(=O)NO [Compound 167995, (2S,4R)-2-(2-(diethylamino)ethyl)-4-(4-fluorophenyl)-N-hydroxy-4-methoxybutanamide]
The Ki of the first is 2-fold lower: 1.1 µM for the first, 2.2 µM for the second.

First: CO[C@@H](C[C@H](CCCc1ccccc1)C(=O)NO)c1ccc(F)cc1 [Compound 167408]
Second: CO[C@@H](C[C@@H](CCCc1ccccc1)C(=O)NO)c1ccc(F)cc1 [Compound 167341, (2R)-2-((2S)-2-(4-fluorophenyl)-2-methoxyethyl)-N-hydroxy-5-phenylpentanamide]
The Ki of the first is higher: over 300 µM for the first, 18 µM for the second.

Compared with COC(CCC(=O)NO)c1ccc(Cl)cc1 (centres unmarked) [Compound 167460, 4-(4-chlorophenyl)-N-hydroxy-4-methoxybutanamide], COc1ccc(C(CCC(=O)NO)OC)cc1 (centres unmarked) [Compound 167457, N-hydroxy-4-methoxy-4-(4-methoxyphenyl)butanamide] is 3.7-fold higher in Ki: 52.3 µM for the first, 193 µM for the second. The first binds more tightly here.

Compared with COC(CCC(=O)NO)c1ccc(C(F)(F)F)cc1 (centres unmarked) [Compound 167511, N-hydroxy-4-methoxy-4-(4-(trifluoromethyl)phenyl)butanamide], CO[C@H](CCC(=O)NO)c1ccc(F)c(C)c1 [Compound 167223, (R)-4-(4-fluoro-3-methylphenyl)-N-hydroxy-4-methoxybutanamide] is 20-fold lower in Ki: 240 µM for the first, 11.9 µM for the second.

Compared with CO[C@H](C[C@H](CCN(C)Cc1ccccc1)C(=O)NO)c1ccc(F)cc1 [Compound 167785, (2S,4R)-2-(2-(benzyl(methyl)amino)ethyl)-4-(4-fluorophenyl)-N-hydroxy-4-methoxybutanamide], CO[C@H](C[C@H](CCN(C)CCCc1ccccc1)C(=O)NO)c1ccc(F)cc1 [Compound 167953, (2S,4R)-4-(4-fluorophenyl)-N-hydroxy-4-methoxy-2-(2-(methyl(3-phenylpropyl)amino)ethyl)butanamide] is 8.7-fold lower in Ki: 2 µM for the first, 0.23 µM for the second. The second binds more tightly here.

CO[C@H](C[C@H](C)C(=O)NO)c1ccc(F)cc1 [Compound 167297, (2S,4R)-4-(4-fluorophenyl)-N-hydroxy-4-methoxy-2-methylbutanamide] and COC(CC(C)C(=O)NO)c1ccc(F)cc1 (centres unmarked) [Compound 167288, 4-(4-Fluoro-phenyl)-N-hydroxy-4-methoxy-2-methyl-butyramide] are within 1.5-fold of each other in Ki: 2.3 µM for the first, 3.1 µM for the second.

Compared with CO[C@H](C[C@H](CCCCN1CCN(Cc2ccccc2)CC1)C(=O)NO)c1ccc(F)cc1 [Compound 168226, (S)-6-(4-benzylpiperazin-1-yl)-2-((R)-2-(4-fluorophenyl)-2-methoxyethyl)-N-hydroxyhexanamide], CO[C@H](C[C@H](CCN1CCN(CCc2ccccc2)CC1)C(=O)NO)c1ccc(F)cc1 [Compound 167958, (2S,4R)-4-(4-fluorophenyl)-N-hydroxy-4-methoxy-2-(2-(4-phenethylpiperazin-1-yl)ethyl)butanamide] is 4.1-fold higher in Ki: 0.58 µM for the first, 2.4 µM for the second.

CO[C@H](C[C@H](CCN1CCC[C@@H](CO)C1)C(=O)NO)c1ccc(F)cc1 [Compound 168059, (2S,4R)-4-(4-fluorophenyl)-N-hydroxy-2-(2-((R)-3-(hydroxymethyl)piperidin-1-yl)ethyl)-4-methoxybutanamide] and CO[C@H](C[C@H](CCN1CCCC(CO)C1)C(=O)NO)c1ccc(F)cc1 (stereo partly drawn) [Compound 167885, (2S,4R)-4-(4-fluorophenyl)-N-hydroxy-2-(2-(3-(hydroxymethyl)piperidin-1-yl)ethyl)-4-methoxybutanamide] are within 1.5-fold of each other in Ki: 0.6 µM for the first, 0.76 µM for the second.

First: CCC[C@H](C[C@@H](OC)c1ccc(F)c(C)c1)C(=O)NO [Compound 167674, (2R)-2-((2R)-2-(4-fluoro-3-methylphenyl)-2-methoxyethyl)-N-hydroxypentanamide]
Second: CO[C@H](C[C@H](CCCCNCc1ccc(F)c(C)c1)C(=O)NO)c1ccc(F)cc1 [Compound 168136, (S)-6-(4-fluoro-3-methylbenzylamino)-2-((R)-2-(4-fluorophenyl)-2-methoxyethyl)-N-hydroxyhexanamide]
The Ki of the first is 130-fold higher: 24 µM for the first, 0.19 µM for the second. The second binds more tightly here.

Going from CO[C@H](C[C@H](CCN(C)c1ccc(Br)cc1)C(=O)NO)c1ccc(F)cc1 [Compound 168013, (2S,4R)-2-(2-((4-bromophenyl)(methyl)amino)ethyl)-4-(4-fluorophenyl)-N-hydroxy-4-methoxybutanamide] to CO[C@H](C[C@H](CCN(C)CCN(C)c1ccccc1)C(=O)NO)c1ccc(F)cc1 [Compound 168058, (2S,4R)-4-(4-fluorophenyl)-N-hydroxy-4-methoxy-2-(2-(methyl(2-(methyl(phenyl)amino)ethyl)amino)ethyl)butanamide], the Ki falls from 1.8 µM to 0.78 µM (2.3-fold).

Going from CO[C@H](C[C@H](CCCCNCc1ccc(C)o1)C(=O)NO)c1ccc(F)cc1 [Compound 168228, (S)-2-((R)-2-(4-fluorophenyl)-2-methoxyethyl)-N-hydroxy-6-((5-methylfuran-2-yl)methylamino)hexanamide] to CO[C@H](C[C@H](CCCCNCc1cccs1)C(=O)NO)c1ccc(F)cc1 [Compound 168223], the Ki falls from 2.8 µM to 0.21 µM (13-fold). The second binds more tightly here.

Compared with CO[C@H](C[C@H](CCN1CCN(c2ccccc2)CC1)C(=O)NO)c1ccc(F)cc1 [Compound 167986, (2S,4R)-4-(4-fluorophenyl)-N-hydroxy-4-methoxy-2-(2-(4-phenylpiperazin-1-yl)ethyl)butanamide], CO[C@H](C[C@H](CCN1CCC(Cc2ccccc2)CC1)C(=O)NO)c1ccc(F)cc1 [Compound 167940, (2S,4R)-2-(2-(4-benzylpiperidin-1-yl)ethyl)-4-(4-fluorophenyl)-N-hydroxy-4-methoxybutanamide] is 5.5-fold lower in Ki: 2.22 µM for the first, 0.4 µM for the second. The second binds more tightly here.

First: COc1cccc(C(CCC(=O)NO)OC)c1 (centres unmarked) [Compound 167458, N-hydroxy-4-methoxy-4-(3-methoxyphenyl)butanamide]
Second: CSC(CCC(=O)NO)c1ccc(F)cc1 (racemic) [Compound 167366, 4-(4-Fluoro-phenyl)-N-hydroxy-4-methylsulfanyl-butyramide]
The Ki of the first is 25-fold higher: 276 µM for the first, 10.9 µM for the second.

First: CO[C@H](C[C@H](CCN1CCN(C(=O)OC(C)(C)C)CC1)C(=O)NO)c1ccc(F)cc1 [Compound 167944, tert-butyl 4-((3S,5R)-5-(4-fluorophenyl)-3-(hydroxycarbamoyl)-5-methoxypentyl)piperazine-1-carboxylate]
Second: CO[C@H](C[C@H](CCN1CCCC1)C(=O)NO)c1ccc(F)cc1 [Compound 167923, (2S,4R)-4-(4-fluorophenyl)-N-hydroxy-4-methoxy-2-(2-(pyrrolidin-1-yl)ethyl)butanamide]
The Ki of the first is 2.6-fold higher: 2.5 µM for the first, 0.97 µM for the second. The second binds more tightly here.

Going from O=C(CCC(O)c1ccc(F)cc1)NO (racemic) [Compound 166976, 4-(4-fluorophenyl)-N,4-dihydroxybutanamide] to COC(CC(Cc1ccccc1)C(=O)NO)c1ccc(F)cc1 (centres unmarked) [Compound 167285], the Ki rises from 138 µM to over 300 µM.

First: CO[C@H](C[C@H](CCN1CCCC(C(=O)O)C1)C(=O)NO)c1ccc(F)cc1 (stereo partly drawn) [Compound 167924, 1-((3S,5R)-5-(4-fluorophenyl)-3-(hydroxycarbamoyl)-5-methoxypentyl)piperidine-3-carboxylic acid]
Second: CO[C@H](C[C@H](CCCCNCC1CCCCC1)C(=O)NO)c1ccc(F)cc1 [Compound 168227, (S)-6-(cyclohexylmethylamino)-2-((R)-2-(4-fluorophenyl)-2-methoxyethyl)-N-hydroxyhexanamide]
The Ki of the first is 13-fold higher: 9 µM for the first, 0.69 µM for the second.

Compared with CO[C@H](C[C@H](CCN(Cc1ccccc1)C(C)C)C(=O)NO)c1ccc(F)cc1 [Compound 167784, (2S,4R)-2-(2-(benzyl(isopropyl)amino)ethyl)-4-(4-fluorophenyl)-N-hydroxy-4-methoxybutanamide], CO[C@H](C[C@@H](CCCc1ccccc1)C(=O)NO)c1ccc(F)cc1 [Compound 167395, (2R)-2-((2R)-2-(4-fluorophenyl)-2-methoxyethyl)-N-hydroxy-5-phenylpentanamide] is 5.6-fold higher in Ki: 14 µM for the first, 78.6 µM for the second.

First: CO[C@H](C[C@H](CCCCNc1ccc(F)cc1)C(=O)NO)c1ccc(F)cc1 [Compound 168229]
Second: CO[C@H](C[C@H](CCN(C)C/C=C/c1ccccc1)C(=O)NO)c1ccc(F)cc1 [Compound 168017, (2S,4R)-2-(2-(cinnamyl(methyl)amino)ethyl)-4-(4-fluorophenyl)-N-hydroxy-4-methoxybutanamide]
The Ki of the first is 5.4-fold higher: 2.8 µM for the first, 0.52 µM for the second. The second binds more tightly here.
